Patent publication US20240279202A1 (NURIX THERAPEUTICS, INC., priority 2021, published 2024)

Assays:
ITK [1] = molecular target: T1, ITK (Homo sapiens, UniProt Q08881); test: ITK degradation HiBiT assay; format: cell-based; design: expressed in transfected cells; host or cells: Molt4 (ATCC CRL-1552), monoclonal clone 1C10, engineered to carry the HiBiT tag; conditions: 4 hrs; for DC50: C-terminal HiBiT-tagged Molt4 cells; for Dmax: MOLT-4, C-terminal HiBiT-tagged Molt4 cells
T1 sequence (Q08881 1-620): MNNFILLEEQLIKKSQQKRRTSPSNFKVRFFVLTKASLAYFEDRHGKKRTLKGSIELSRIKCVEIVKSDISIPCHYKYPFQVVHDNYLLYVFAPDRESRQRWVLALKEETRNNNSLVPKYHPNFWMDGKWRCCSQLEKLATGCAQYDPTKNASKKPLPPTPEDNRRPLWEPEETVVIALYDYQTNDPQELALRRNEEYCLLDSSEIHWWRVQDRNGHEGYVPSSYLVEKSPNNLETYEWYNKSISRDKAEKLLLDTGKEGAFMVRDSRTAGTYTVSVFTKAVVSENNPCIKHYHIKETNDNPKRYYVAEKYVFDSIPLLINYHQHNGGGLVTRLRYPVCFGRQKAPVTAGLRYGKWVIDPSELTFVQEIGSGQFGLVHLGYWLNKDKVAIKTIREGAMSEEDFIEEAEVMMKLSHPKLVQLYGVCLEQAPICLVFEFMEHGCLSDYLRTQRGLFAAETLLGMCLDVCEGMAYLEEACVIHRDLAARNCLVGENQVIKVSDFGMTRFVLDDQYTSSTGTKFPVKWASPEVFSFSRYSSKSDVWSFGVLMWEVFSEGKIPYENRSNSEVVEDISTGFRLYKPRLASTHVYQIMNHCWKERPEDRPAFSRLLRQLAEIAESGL
Method in brief: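 C-terminal HiBiT-tagged Molt4 cells (clone 1C10) treated 4 h at 32° C with an 11-point, 5-fold compound dilution series (0.5% DMSO). HiBiT lytic detection with LgBiT then luminescence read; % ITK remaining versus concentration fit by four-parameter variable-slope model to give DC50 and Dmax.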

[2] = Mouse PK analysis (blood/plasma concentration after oral administration); format: in vivo; conditions: mouse; mice, oral, plasma
Protocol: (§1) Compounds 1, 3, 7, and 42 were formulated and administered at 90 mg/kg to mice by oral gavage (PO). Blood was collected at defined time points (after 1, 2, and 6 hours) after compounds administration to determine PK parameters. Concentration increased through 6 hours. Six hours later mice were sacrificed and splenocytes were isolated and used to prepare protein lysates. Total protein levels were determined in the lysates using the BCA assay according to standard methods. Equal amounts of protein were then analyzed by Western blot to determine the level of ITK expression in each sample. ITK band intensities were measured using Alpha View software and the percent of ITK remaining in each test animal was determined relative to the mean of ITK levels in vehicle control samples.
Compounds 16, 17, and 18 were administered to mice orally. After 6 hours or 24 hours, splenocytes cells were harvested. ITK was evaluated by Western blotting. Plasma concentrations were determined by LC/MS/MS. Plasma samples were protein precipitated by addition of 100 μl of acetonitrile containing 50 ng/ml of internal standard. The resulting mixture was vortexed and centrifuged at 4000 RPM for 5 minutes. An aliquot of the resultant supernatant (75 μl) was added to 75 μl of 0.1% formic acid in water to constitute the final sample for injection. Samples were injected on a Shimadzu Exion LC Binary Gradient AD Pump HLPC system connected to a Sciex QTRAP 6500+mass spectrometer. Five μl of sample was injected onto a Waters Acquity UPLC BEH C18 column 130A (2.1×30 mm, […]) at 40° C. utilizing a flow rate of 700 μl/minute. Mobile Phase A was 0.1% formic acid in water and mobile phase B was 0.1% formic acid in acetonitrile. A linear gradient of 15-95% B over 1.0 minute was used. The mass spectrometer was operated in positive ion electrospray mode with multiple reaction monitoring for maximum sensitivity. Sciex Analyst software (version 1.6.3) was used for LC/MS/MS instrument control and acquisition. Compound concentration was determined against a standard curve of internal standard versus compound peak area ratio. Noncompartmental PK parameters were determined using […] software (version 8.2.0.4383) from Certara. Plasma concentrations from the LC/MS/MS analyses, dose, route of administration, and desired units were utilized for PK parameter calculations. […] FIG. 4C provides the concentration over time of compound 17 following in vivo oral administration in the 6 hour and 24 hour assays.
Cmax, Tmax and AUClast were all calculated using a WinNonLin Phoenix 64 v 8.2.0.4383. Using non-compartmental analysis, Tmax, Cmax and AUClast were determined as follows: • Tmax—Time of maximum observed concentration. • Cmax—Maximum observed concentration, occurring at time Tmax, as defined above. • AUClast—Area under the curve from the time of dosing to the time of the last measurable (positive) concentration (Tlast).

ITK [3] = molecular target: T2, ITK (Mus musculus, UniProt Q03526); test: Mouse PD assay for ITK degradation (Western blot, splenocytes after oral administration); format: in vivo; conditions: percent ITK remaining in mouse splenocytes relative to vehicle, 90 mpk PO, 6 h
T2 construct: mice were sacrificed and splenocytes were isolated and used to prepare protein lysates; from tissue; host or cells: mouse splenocytes (spleen) after oral dosing
T2 sequence (Q03526 1-625): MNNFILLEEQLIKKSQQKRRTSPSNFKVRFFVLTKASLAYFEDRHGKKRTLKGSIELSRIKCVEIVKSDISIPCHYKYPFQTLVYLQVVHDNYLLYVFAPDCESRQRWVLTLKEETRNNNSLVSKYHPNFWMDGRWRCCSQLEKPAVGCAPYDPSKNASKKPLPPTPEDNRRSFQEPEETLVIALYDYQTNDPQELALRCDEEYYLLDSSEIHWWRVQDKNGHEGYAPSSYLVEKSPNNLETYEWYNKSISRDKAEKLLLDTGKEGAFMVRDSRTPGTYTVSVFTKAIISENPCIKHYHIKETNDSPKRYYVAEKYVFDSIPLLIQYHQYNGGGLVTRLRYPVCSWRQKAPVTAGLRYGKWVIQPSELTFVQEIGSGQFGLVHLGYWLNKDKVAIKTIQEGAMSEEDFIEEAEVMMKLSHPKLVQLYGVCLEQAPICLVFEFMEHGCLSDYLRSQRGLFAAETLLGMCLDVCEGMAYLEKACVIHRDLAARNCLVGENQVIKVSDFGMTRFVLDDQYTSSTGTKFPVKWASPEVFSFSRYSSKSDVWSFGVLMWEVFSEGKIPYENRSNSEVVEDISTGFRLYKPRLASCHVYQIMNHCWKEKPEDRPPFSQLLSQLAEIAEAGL
Protocol: as §1
After 6 hours, splenocytes cells were harvested. ITK was evaluated by Western blotting.
Compounds 43, 4, 5, 10, 11, 12, 44, 14, 3, and 13 were administered to mice orally. After 6 hours, splenocytes cells were harvested. ITK was evaluated by Western blotting. Media was removed and cell pellets were lysed in 100 uL lysis buffer (RIPA buffer (Fisher, PI89901), cOmplete Mini EDTA-free protease inhibitor (Sigma 11836170001), Protease Inhibitor Cocktail (Sigma, P2714), Phosphatase Inhibitor Cocktail 2 and 3 (Sigma, P5726 and P0044), Benzonase (Sigma, E1014)). Cells were lysed overnight at −20° C. Following thaw, cells were centrifuged for 10 min at 13000 rpm, then transferred to new tube. Protein levels were determined by BCA Assay performed according to manufacturer's protocol (EMID Millipore, cat. no. 71285-3). Samples were combined with (4×) LDS Sample Buffer and (10×) Reducing Agent and H2O to equally load 20 ug protein per lane of a 26-well NuPAGE 4-12% Bis-Tris protein gel (1.0 mm, Thermo cat. no. NP0326). Samples were separated by running gels at constant 150 V in NuPAGE MES SDS Running Buffer. Following electrophoresis, proteins were transferred to nitrocellulose membranes using an iBlot Gel Transfer Device and iBlot Gel Transfer Stacks (Thermo cat. no. IB21001 and IB301001) and transfer method P3 (20V for 7 min). Membranes were blocked for 1 hr in 5% milk solution (TBS (0.2% Tween-20)). Following blocking, membranes were incubated with primary antibody (1:1000 CST ITK (2F12) #2380) overnight at 4° C. with gentle shaking. Blots were washed 2× in TBS (0.2% Tween-20), 30 min per wash. Following washes, blots were incubated in secondary HRP-conjugated antibody (Promega anti-Mouse IgG (H+L) HRP cat. no. W4021), 1:5000 in 5% milk solution (TBS (0.2% Tween-20)), for 1 hr at room temperature with gentle shaking. Blots were washed 2× in TBS (0.2% Tween-20), 30 min per wash. Blots were incubated with 1:1 mix of ECL reagents 1 & 2 (Amersham ECL Western Blotting Detection Reagent, cat. no. RPN2106) for 2 min at room temperature. Bands were visualized using a Protein Simple imager. Blots were then re-probed with a combination of anti-actin antibody (Sigma Monoclonal Mouse Anti-3-Actin (clone AC-15), cat. no. A5441) and secondary H1RP-conjugated antibody (Promega anti-Mouse IgG (H+L) HRP, cat. no. W4021) and similar steps were taken for incubation, wash, detection and visualization steps as above. The data was analyzed using Alpha View software. The densitometric reading for each sample band was normalized to that of the corresponding actin band per lane. Approximate % ITK remaining per sample was calculated as follows: […]
Once % ITK remaining has been calculated for each sample, groups are averaged together to show an means % ITK normalized to actin and relative to control.
Compounds 16, 17, and 18 were administered to mice orally. After 6 hours or 24 hours, splenocytes cells were harvested. ITK was evaluated by Western blotting. Plasma concentrations were determined by LC/MS/MS. Plasma samples were protein precipitated by addition of 100 μl of acetonitrile containing 50 ng/ml of internal standard. The resulting mixture was vortexed and centrifuged at 4000 RPM for 5 minutes. […]

Row | SMILES | DC50 (ITK [1]) | Dmax (ITK [1]) | AUC(0-t) [2] | Cmax [2] | Tmax [2] | ITK (%) 90 mpk PO, 6 h (ITK [3])
1 | CC1(C)CCc2c(-c3cc4ccc(C(=O)N5CCC(C6CCN(c7ccc(C8CCC(=O)NC8=O)cn7)CC6)CC5)cc4[nH]3)n[nH]c2C1 (centres unmarked) [Compound 58, 3-(6-(1′-(2-(6,6-dimethyl-4,5,6,7-tetrahydro-1H-indazol-3-yl)-1H-indole-6-carbonyl)-[4,4′-bipiperidin]-1-yl)pyridin-3-yl)piperidine-2,6-dione] | 13.4 nM | 69% | 0.18 µM·h | 61 nM | 1.5 h | 
2 | CN(C(=O)CC1CCN(c2ccc(C3CCC(=O)NC3=O)cn2)CC1)c1ccc2cc(-c3n[nH]c4c3C[C@@H]3C(F)(F)[C@]3(C)C4)[nH]c2c1 (some centres unmarked) [Compound 20] |  |  |  |  |  | 66%
3 | CC1(C)CCc2c(-c3cc4ccc(C(=O)N5CCC(CN6CCC7(C6)CN(c6ccc(C8CCC(=O)NC8=O)cn6)C7)CC5)cc4[nH]3)n[nH]c2C1 (centres unmarked) [Compound 61, 3-(6-(6-((1-(2-(6,6-dimethyl-4,5,6,7-tetrahydro-1H-indazol-3-yl)-1H-indole-6-carbonyl)piperidin-4-yl)methyl)-2,6-diazaspiro[3.4]octan-2-yl)pyridin-3-yl)piperidine-2,6-dione] |  | 83% | 0.08 µM·h | 23 nM | 1.5 h | 
4 | C[C@@]12Cc3[nH]nc(C(=O)Nc4cnn([C@H](c5ccccc5)C5CN(C(=O)C6CN(c7ccc(C8CCC(=O)NC8=O)cn7)C6)C5)c4)c3C[C@@H]1C2(F)F (stereo partly drawn) [Compound 51, (4aS,5aR)-N-(1-((1S)-(1-(1-(5-(2,6-dioxopiperidin-3-yl)pyridin-2-yl)azetidine-3-carbonyl)azetidin-3-yl)(phenyl)methyl)-1H-pyrazol-4-yl)-5,5-difluoro-5a-methyl-1,4,4a,5,5a,6-hexahydrocyclopropa[f]indazole-3-carboxamide] |  |  | 2.34 µM·h | 720 nM | 6 h | 
5 | C[C@@]12Cc3[nH]nc(C(=O)Nc4cnn([C@H]5CCN(C[C@@H]6CCN(c7ccc(C8CCC(=O)NC8=O)cc7)C6)C[C@@H]5F)c4)c3C[C@@H]1C2(F)F (stereo partly drawn) [Compound 100, (4aS,5aR)-N-(1-((3S,4S)-1-(((3S)-1-(4-(2,6-dioxopiperidin-3-yl)phenyl)pyrrolidin-3-yl)methyl)-3-fluoropiperidin-4-yl)-1H-pyrazol-4-yl)-5,5-difluoro-5a-methyl-1,4,4a,5,5a,6-hexahydrocyclopropa[f]indazole-3-carboxamide] | 1.7 nM | 86% |  |  |  | 
6 | C[C@@]12Cc3[nH]nc(-c4cc5ccc(C(=O)N6CC7CCC(C6)N7CC6CCN(c7ccc(C8CCC(=O)NC8=O)cc7)CC6)cc5[nH]4)c3C[C@@H]1C2(F)F (mixture of isomers) [Compound 154] |  | 76% |  |  |  | 
7 | C[C@@H]1CN(CC2CCN(c3ccc(C4CCC(=O)NC4=O)cn3)CC2)CCN1C(=O)c1ccc2cc(-c3n[nH]c4c3CCC(C)(C)C4)[nH]c2c1 (stereo partly drawn) [Compound 132, 3-(6-(4-(((R)-4-(2-(6,6-dimethyl-4,5,6,7-tetrahydro-1H-indazol-3-yl)-1H-indole-6-carbonyl)-3-methylpiperazin-1-yl)methyl)piperidin-1-yl)pyridin-3-yl)piperidine-2,6-dione] | 7 nM | 82% |  |  |  | 
8 | C[C@H]1CN(CC2CCN(c3ccc(C4CCC(=O)NC4=O)cn3)CC2)CCN1C(=O)c1ccc2cc(-c3n[nH]c4c3CCC(C)(C)C4)[nH]c2c1 (stereo partly drawn) [Compound 130, 3-(6-(4-(((S)-4-(2-(6,6-dimethyl-4,5,6,7-tetrahydro-1H-indazol-3-yl)-1H-indole-6-carbonyl)-3-methylpiperazin-1-yl)methyl)piperidin-1-yl)pyridin-3-yl)piperidine-2,6-dione] | 5.5 nM | 85% |  |  |  | 
